Publication PMC5218480 (PLoS ONE, 2017)

Test system: MV-4-11 cells
Test: Gene expression microarray analysis (Affymetrix PrimeView) and GSEA
Type: cell-based, human
Set-up: RFU PODN (11730768_x_at) / Fold change /veh PODN (11730768_x_at) / RFU LINC00158 (11744669_a_at) / Fold change /veh LINC00158 (11744669_a_at) / RFU DUSP10 (11751237_a_at) / Fold change /veh DUSP10 (11751237_a_at) / RFU ID3 (11757404_x_at) / Fold change /veh ID3 (11757404_x_at) / RFU PLEKHG5 (11737974_s_at) / Fold change /veh PLEKHG5 (11737974_s_at) / RFU LRRC4B (11730491_at) / Fold change /veh LRRC4B (11730491_at) / RFU GIMAP4 (11747438_a_at) / Fold change /veh GIMAP4 (11747438_a_at) / RFU KRT8 (11758183_x_at) / Fold change /veh KRT8 (11758183_x_at) / RFU CNN1 (11734310_a_at) / Fold change /veh CNN1 (11734310_a_at) / RFU VPS37D (11726825_at) / Fold change /veh VPS37D (11726825_at) / RFU C10orf10 (11716522_x_at) / Fold change /veh C10orf10 (11716522_x_at) / RFU KIR2DL2 /// KIR2DL4 /// KIR2DL5A /// KIR2DL5B /// KIR2DS1 /// KIR2DS2 /// KIR2DS3 /// KIR2DS4 /// KIR3DL3 /// KIR3DL3 /// KIR3DS1 (11738374_at) / Fold change /veh KIR2DL2 /// KIR2DL4 /// KIR2DL5A /// KIR2DL5B /// KIR2DS1 /// KIR2DS2 /// KIR2DS3 /// KIR2DS4 /// KIR3DL3 /// KIR3DL3 /// KIR3DS1 (11738374_at) / RFU C1QL1 (11718748_at) / Fold change /veh C1QL1 (11718748_at) / RFU TMPRSS4 (11747572_a_at) / Fold change /veh TMPRSS4 (11747572_a_at) / RFU HAMP (11756126_x_at) / Fold change /veh HAMP (11756126_x_at) / RFU RNFT2 (11725882_a_at) / Fold change /veh RNFT2 (11725882_a_at) / RFU NR4A2 (11747474_a_at) / Fold change /veh NR4A2 (11747474_a_at) / RFU ABCC12 (11746883_a_at) / Fold change /veh ABCC12 (11746883_a_at) / RFU TMEM136 (11760407_x_at) / Fold change /veh TMEM136 (11760407_x_at) / RFU CLDN22 /// WWC2 (11732394_at) / Fold change /veh CLDN22 /// WWC2 (11732394_at) / RFU HLA-DPB1 (11760878_x_at) / Fold change /veh HLA-DPB1 (11760878_x_at) / RFU SPINT1 (11716480_a_at) / Fold change /veh SPINT1 (11716480_a_at) / RFU GAP43 (11754022_s_at) / Fold change /veh GAP43 (11754022_s_at) / RFU A4GNT (11735810_at) / Fold change /veh A4GNT (11735810_at) / RFU PRB3 (11715151_x_at) / Fold change /veh PRB3 (11715151_x_at) / RFU TUBB4B (11761932_at) / Fold change /veh TUBB4B (11761932_at) / RFU CAPN14 (11732068_a_at) / Fold change /veh CAPN14 (11732068_a_at) / RFU TMCC2 (11721928_a_at) / Fold change /veh TMCC2 (11721928_a_at) / RFU IRGQ (11745062_a_at) / Fold change /veh IRGQ (11745062_a_at) / RFU FAM174B (11720279_a_at) / Fold change /veh FAM174B (11720279_a_at) / RFU TMPRSS4 (11748680_a_at) / Fold change /veh TMPRSS4 (11748680_a_at) / RFU FAM212B (11763350_a_at) / Fold change /veh FAM212B (11763350_a_at) / RFU PLEKHG5 (11743358_a_at) / Fold change /veh PLEKHG5 (11743358_a_at) / RFU ZSCAN30 (11745921_a_at) / Fold change /veh ZSCAN30 (11745921_a_at) / RFU CMKLR1 (11741424_a_at) / Fold change /veh CMKLR1 (11741424_a_at) / RFU LOC101060620 /// MAPK8IP1 (11723275_at) / Fold change /veh LOC101060620 /// MAPK8IP1 (11723275_at) / RFU SPTSSB (11747773_x_at) / Fold change /veh SPTSSB (11747773_x_at) / RFU PRSS12 (11739890_at) / Fold change /veh PRSS12 (11739890_at) / RFU BIN1 (11741810_x_at) / Fold change /veh BIN1 (11741810_x_at) / RFU WNT11 (11732464_a_at) / Fold change /veh WNT11 (11732464_a_at) / RFU C10orf10 (11716521_a_at) / Fold change /veh C10orf10 (11716521_a_at) / RFU C5orf56 (11738089_at) / Fold change /veh C5orf56 (11738089_at) / RFU CYB561 (11721691_x_at) / Fold change /veh CYB561 (11721691_x_at) / RFU ANKRD19P (11752326_a_at) / Fold change /veh ANKRD19P (11752326_a_at) / RFU OR2T12 /// OR2T33 /// OR2T8 (11738714_s_at) / Fold change /veh OR2T12 /// OR2T33 /// OR2T8 (11738714_s_at) / RFU VCAN (11748164_a_at) / Fold change /veh VCAN (11748164_a_at) / RFU JSRP1 (11732532_at) / Fold change /veh JSRP1 (11732532_at) / RFU KRTAP10-11 (11738290_x_at) / Fold change /veh KRTAP10-11 (11738290_x_at) / RFU MYO3A (11730013_a_at) / Fold change /veh MYO3A (11730013_a_at) / RFU EBF3 (11725865_a_at) / Fold change /veh EBF3 (11725865_a_at) / RFU CAMK2N1 (11719241_x_at) / Fold change /veh CAMK2N1 (11719241_x_at) / RFU C5orf56 (11738088_a_at) / Fold change /veh C5orf56 (11738088_a_at) / RFU OLFML3 (11715873_a_at) / Fold change /veh OLFML3 (11715873_a_at) / RFU LOC100653217 /// NTM (11731650_a_at) / Fold change /veh LOC100653217 /// NTM (11731650_a_at) / RFU MAPK11 (11762145_a_at) / Fold change /veh MAPK11 (11762145_a_at) / RFU FIZ1 (11724087_x_at) / Fold change /veh FIZ1 (11724087_x_at) / RFU OASL (11726364_x_at) / Fold change /veh OASL (11726364_x_at) / RFU SOX15 (11748057_x_at) / Fold change /veh SOX15 (11748057_x_at) / RFU CD79A (11719716_a_at) / Fold change /veh CD79A (11719716_a_at) / RFU HIST1H1D (11736915_at) / Fold change /veh HIST1H1D (11736915_at) / RFU CASKIN2 (11723855_a_at) / Fold change /veh CASKIN2 (11723855_a_at) / RFU LOC730098 (11760151_x_at) / Fold change /veh LOC730098 (11760151_x_at) / RFU OR4N2 (11742367_at) / Fold change /veh OR4N2 (11742367_at) / RFU PRRT2 (11749266_a_at) / Fold change /veh PRRT2 (11749266_a_at) / RFU SNX32 (11753110_a_at) / Fold change /veh SNX32 (11753110_a_at) / RFU CDHR5 (11726645_a_at) / Fold change /veh CDHR5 (11726645_a_at) / RFU RCAN1 (11760418_a_at) / Fold change /veh RCAN1 (11760418_a_at) / RFU FAM167A (11723789_a_at) / Fold change /veh FAM167A (11723789_a_at) / RFU FAM26E (11764081_at) / Fold change /veh FAM26E (11764081_at) / RFU ISYNA1 (11749810_s_at) / Fold change /veh ISYNA1 (11749810_s_at) / RFU ACY1 (11761880_at) / Fold change /veh ACY1 (11761880_at) / RFU 11764098_at / Fold change /veh 11764098_at / RFU SAMD14 (11745864_x_at) / Fold change /veh SAMD14 (11745864_x_at) / RFU NPB (11741838_a_at) / Fold change /veh NPB (11741838_a_at) / RFU TMPRSS6 (11731388_a_at) / Fold change /veh TMPRSS6 (11731388_a_at) / RFU KRTAP10-2 (11738614_at) / Fold change /veh KRTAP10-2 (11738614_at) / RFU ARHGAP8 /// PRR5-ARHGAP8 (11727945_x_at) / Fold change /veh ARHGAP8 /// PRR5-ARHGAP8 (11727945_x_at) / RFU KRTAP5-7 /// NADSYN1 (11734609_at) / Fold change /veh KRTAP5-7 /// NADSYN1 (11734609_at) / RFU RASL12 (11751679_a_at) / Fold change /veh RASL12 (11751679_a_at) / RFU CDKN2B (11736163_a_at) / Fold change /veh CDKN2B (11736163_a_at) / RFU PRF1 (11729649_at) / Fold change /veh PRF1 (11729649_at) / RFU, ZNF638 /// ZNF638-IT1 / Fold change vs veh, ZNF638 /// ZNF638-IT1 / RFU, PANK3 / Fold change vs veh, PANK3 / RFU, SH3YL1 / Fold change vs veh, SH3YL1 / RFU, ZEB2 / Fold change vs veh, ZEB2 / RFU, NRIP1 / Fold change vs veh, NRIP1 / RFU, PTTG1IP / Fold change vs veh, PTTG1IP / RFU, CAPN2 / Fold change vs veh, CAPN2 / RFU, MED14 / Fold change vs veh, MED14 / RFU, SNORA58 / Fold change vs veh, SNORA58 / RFU, C1orf63 / Fold change vs veh, C1orf63 / RFU, LRRFIP1 / Fold change vs veh, LRRFIP1 / RFU, NDUFAF7 / Fold change vs veh, NDUFAF7 / RFU, SLC12A2 / Fold change vs veh, SLC12A2 / RFU, IBTK / Fold change vs veh, IBTK / RFU, ESF1 / Fold change vs veh, ESF1 / Fold change vs veh, TMEM50B / RFU, TAOK1 / Fold change vs veh, TAOK1 / RFU, ACBD3 / Fold change vs veh, ACBD3 / RFU, TMA16 / Fold change vs veh, TMA16 / RFU, RWDD3 / Fold change vs veh, RWDD3 / RFU, BCAT1 / Fold change vs veh, BCAT1 / RFU, EDEM3 / Fold change vs veh, EDEM3 / RFU, TMEM33 / Fold change vs veh, TMEM33 / RFU, WDR75 / Fold change vs veh, WDR75 / RFU, AHCTF1 / Fold change vs veh, AHCTF1 / RFU, TFRC / Fold change vs veh, TFRC / RFU, ZDHHC17 / Fold change vs veh, ZDHHC17 / RFU, NOM1 / Fold change vs veh, NOM1 / RFU, ARL8B / Fold change vs veh, ARL8B / RFU, ZBTB11 / Fold change vs veh, ZBTB11 / RFU, TAMM41 / Fold change vs veh, TAMM41 / RFU, KIAA1704 /// LOC100996395 / Fold change vs veh, KIAA1704 /// LOC100996395 / RFU, ING1 / Fold change vs veh, ING1 / RFU, TRMT61B / Fold change vs veh, TRMT61B / RFU, FUBP3 / Fold change vs veh, FUBP3 / RFU, TP53 / Fold change vs veh, TP53 / RFU, TNKS2 / Fold change vs veh, TNKS2 / RFU, ZFP14 / Fold change vs veh, ZFP14 / RFU, ACTR2 / Fold change vs veh, ACTR2 / RFU, PPP3R1 / Fold change vs veh, PPP3R1 / RFU, PIK3R1 / Fold change vs veh, PIK3R1 / RFU, HNRNPA1 / Fold change vs veh, HNRNPA1 / RFU, RNF170 / Fold change vs veh, RNF170 / RFU, ZNF28 / Fold change vs veh, ZNF28 / RFU, RNGTT / Fold change vs veh, RNGTT / RFU, OGT / Fold change vs veh, OGT / RFU, BRD1 / Fold change vs veh, BRD1 / RFU, MARS / Fold change vs veh, MARS / RFU, ZNF655 / Fold change vs veh, ZNF655 / RFU, FAHD1 / Fold change vs veh, FAHD1 / RFU, BDP1 / Fold change vs veh, BDP1 / RFU, LRRCC1 / Fold change vs veh, LRRCC1 / RFU, ARID1A / Fold change vs veh, ARID1A / RFU, ZNF146 / Fold change vs veh, ZNF146 / RFU, ZNF330 / Fold change vs veh, ZNF330 / RFU, GPN3 / Fold change vs veh, GPN3 / RFU, C9orf123 / Fold change vs veh, C9orf123 / RFU, N4BP2L2 / Fold change vs veh, N4BP2L2 / RFU, ARFIP1 / Fold change vs veh, ARFIP1 / RFU, FAM179B / Fold change vs veh, FAM179B / RFU, BCL10 / Fold change vs veh, BCL10 / RFU, UHRF1BP1L / Fold change vs veh, UHRF1BP1L / RFU, BET1 / Fold change vs veh, BET1 / RFU, CNOT2 / Fold change vs veh, CNOT2 / RFU, ZNF268 / Fold change vs veh, ZNF268 / Fold change vs veh, ZNF507 / RFU, DGCR2 / Fold change vs veh, DGCR2 / RFU, WDSUB1 / Fold change vs veh, WDSUB1 / Fold change vs veh, HSP90B1 /// MIR3652 / RFU, ADSS / Fold change vs veh, ADSS / RFU, GK / Fold change vs veh, GK / RFU, ZNF148 / Fold change vs veh, ZNF148 / RFU, TAF9 / Fold change vs veh, TAF9 / RFU, SLC1A5 / Fold change vs veh, SLC1A5 / RFU, SLMO2 / Fold change vs veh, SLMO2 / RFU, ABCC4 / Fold change vs veh, ABCC4 / RFU, LOC101060439 /// RAP1B / Fold change vs veh, LOC101060439 /// RAP1B / RFU, RFX7 / Fold change vs veh, RFX7 / RFU, GTPBP10 / Fold change vs veh, GTPBP10 / RFU, CNEP1R1 / Fold change vs veh, CNEP1R1 / RFU, BIVM-ERCC5 /// ERCC5 / Fold change vs veh, BIVM-ERCC5 /// ERCC5 / RFU, ILF3 / Fold change vs veh, ILF3 / RFU 11762660_at / Fold change /veh 11762660_at / RFU VCAN (11757783_s_at) / Fold change /veh VCAN (11757783_s_at) / RFU DDX43 (11728927_at) / Fold change /veh DDX43 (11728927_at) / RFU KRT8 (11758188_x_at) / Fold change /veh KRT8 (11758188_x_at) / RFU NKD1 (11759106_at) / Fold change /veh NKD1 (11759106_at) / RFU SRD5A1 (11742802_a_at) / Fold change /veh SRD5A1 (11742802_a_at) / RFU TPSAB1 /// TPSB2 (11721975_s_at) / Fold change /veh TPSAB1 /// TPSB2 (11721975_s_at) / RFU GSTM3 (11746129_a_at) / Fold change /veh GSTM3 (11746129_a_at) / RFU IL23R (11737362_x_at) / Fold change /veh IL23R (11737362_x_at) / RFU TMEM51 (11727254_a_at) / Fold change /veh TMEM51 (11727254_a_at) / RFU PIWIL2 (11732686_x_at) / Fold change /veh PIWIL2 (11732686_x_at) / RFU ORM1 (11744905_x_at) / Fold change /veh ORM1 (11744905_x_at) / RFU CCDC152 (11743942_at) / Fold change /veh CCDC152 (11743942_at) / RFU ECM1 (11717891_a_at) / Fold change /veh ECM1 (11717891_a_at) / RFU IL23R (11748794_a_at) / Fold change /veh IL23R (11748794_a_at) / RFU TNFAIP8L3 (11732012_x_at) / Fold change /veh TNFAIP8L3 (11732012_x_at) / RFU MBOAT4 (11741988_at) / Fold change /veh MBOAT4 (11741988_at) / RFU 11764193_at / Fold change /veh 11764193_at / RFU TMEM53 (11763286_at) / Fold change /veh TMEM53 (11763286_at) / RFU MAGEB2 (11727129_at) / Fold change /veh MAGEB2 (11727129_at) / RFU TMEM200A (11744735_a_at) / Fold change /veh TMEM200A (11744735_a_at) / RFU CCDC152 (11751479_a_at) / Fold change /veh CCDC152 (11751479_a_at) / RFU FAM211A (11726209_a_at) / Fold change /veh FAM211A (11726209_a_at) / RFU RGS16 (11746705_a_at) / Fold change /veh RGS16 (11746705_a_at) / RFU VCAN (11755009_s_at) / Fold change /veh VCAN (11755009_s_at) / RFU RHOB (11743442_s_at) / Fold change /veh RHOB (11743442_s_at) / RFU RGS16 (11720943_a_at) / Fold change /veh RGS16 (11720943_a_at) / RFU RGS16 (11720944_at) / Fold change /veh RGS16 (11720944_at) / RFU, VPS4B / Fold change vs veh, VPS4B / RFU, CREB1 / Fold change vs veh, CREB1 / RFU, DNAJC13 / Fold change vs veh, DNAJC13 / RFU, GNAQ / Fold change vs veh, GNAQ / RFU, CDK5R1 / Fold change vs veh, CDK5R1 / RFU, ZRANB3 / Fold change vs veh, ZRANB3 / RFU, CUL4A / Fold change vs veh, CUL4A / RFU, CCNY / Fold change vs veh, CCNY / RFU, UFL1 / Fold change vs veh, UFL1 / RFU, COG3 / Fold change vs veh, COG3 / RFU, DIAPH2 / Fold change vs veh, DIAPH2 / RFU, SKA2 / Fold change vs veh, SKA2 / RFU, AFF3 / Fold change vs veh, AFF3 / RFU, LMF1 / Fold change vs veh, LMF1 / RFU, IPO11 / Fold change vs veh, IPO11 / RFU, DFFB / Fold change vs veh, DFFB / RFU, FOXP1 / Fold change vs veh, FOXP1 / RFU, CARD8 / Fold change vs veh, CARD8 / RFU, STRN3 / Fold change vs veh, STRN3 / RFU, ADK / Fold change vs veh, ADK / RFU, RASSF2 / Fold change vs veh, RASSF2 / RFU, WIPF1 / Fold change vs veh, WIPF1 / RFU, LARP1B / Fold change vs veh, LARP1B / RFU, RASA1 / Fold change vs veh, RASA1 / RFU, RB1 / Fold change vs veh, RB1 / RFU, PPFIA1 / Fold change vs veh, PPFIA1 / RFU, MAT2A / Fold change vs veh, MAT2A / RFU, CCT5 / Fold change vs veh, CCT5 / RFU, WDR92 / Fold change vs veh, WDR92 / RFU, CUX1 / Fold change vs veh, CUX1 / RFU, TTC7A / Fold change vs veh, TTC7A / RFU, TMEM135 / Fold change vs veh, TMEM135 / RFU, DEPTOR / Fold change vs veh, DEPTOR / RFU, CPM / Fold change vs veh, CPM / RFU, DNAJB6 / Fold change vs veh, DNAJB6 / RFU, CACNA2D3 / Fold change vs veh, CACNA2D3 / RFU, DTX4 / Fold change vs veh, DTX4 / RFU, TFCP2 / Fold change vs veh, TFCP2 / RFU, GMCL1 /// GMCL1P1 / Fold change vs veh, GMCL1 /// GMCL1P1 / RFU, AEBP2 / Fold change vs veh, AEBP2 / RFU, SNHG1 /// SNORD22 /// SNORD25 /// SNORD26 /// SNORD27 /// SNORD28 /// SNORD29 /// SNORD31 / Fold change vs veh, SNHG1 /// SNORD22 /// SNORD25 /// SNORD26 /// SNORD27 /// SNORD28 /// SNORD29 /// SNORD31 / Fold change (Aza/veh), C12orf56 (ProbeSet 11735607_a_at) / Fold change (ACY-1035/veh), C12orf56 (ProbeSet 11735607_a_at) / Fold change (Aza/veh), FGFR1OP (ProbeSet 11751329_s_at) / Fold change (ACY-1035/veh), FGFR1OP (ProbeSet 11751329_s_at) / Fold change (Aza/veh), VPS36 (ProbeSet 11739960_a_at) / Fold change (ACY-1035/veh), VPS36 (ProbeSet 11739960_a_at) / RFU SYPL1 (11715823_x_at) / Fold change /veh SYPL1 (11715823_x_at) / RFU IGFBP7 (11715501_s_at) / Fold change /veh IGFBP7 (11715501_s_at) / RFU REEP3 (11722064_at) / Fold change /veh REEP3 (11722064_at) / RFU IGLL1 (11728026_x_at) / Fold change /veh IGLL1 (11728026_x_at): dose or concentration left out as unconfirmed
Details: ProbeSet 11759094_a_at; LIST D

SMILES: Nc1ncn([C@@H]2O[C@H](CO)[C@@H](O)[C@H]2O)c(=O)n1 [azacitidine]
- Fold change vs veh, GNAQ: 0.76
